This passage reports EC50 and inhibition results from doi:10.1101/2020.07.28.224543v1, “Diminazene resistance in Trypanosoma congolense is linked to reduced mitochondrial membrane potential and not to reduced transport capacity” (biorxiv, 2020).

One assay relates to T1, T. congolense IL3000.
T1 construct: IL3000
As to the kind of experiment: microbe, parasite or virus in culture. More on the design: Alamar blue (resazurin) viability assay of in vitro grown trypanosomes, fluorescence read-out. The conditions noted are these: Trypanosoma congolense, parental strain IL3000. How it is done:
At the point of adaptation to 550 nM, the level of DA resistance and the extent of any cross-resistance with the diamidine drugs pentamidine and DB829, and with oxaboroles AN7973 and SCYX7158, was tested using an assay based on the viability dye Alamar blue (resazurin), in which live trypanosomes (but not dead ones) reduce blue and non-fluorescent resazurin to pink, fluorescent resorufin. This assay yields a fluorescent output that is proportional to the number of cells in the well [36]. […] Resistance to DA, as measured in this assay, was ~2.3-3-fold, and highly significant (Fig 1A for fold differences and P values, Table 1 for EC50 values). […] Importantly, there was no cross-resistance with isometamidium, nor with either of the oxaboroles tested, AN7973 and SCYX7158. To further investigate the limits of cross-resistance with other diamidines, a series of bis-benzofuran analogues were tested (Table 1). These analogues were chosen to explore the effect of variable linker length between the benzofuramidine end groups, varying inter-amidine distance as well as the flexibility of the molecule.

The target in the next assay is T2, TbAT1 (Trypanosoma brucei, UniProt Q9Y0I0).
T2 construct: gene AT1; full-length transporter expressed in T. b. brucei bloodstream-form clone B48 (lacks native TbAT1/P2 and wild-type TbAQP2)
Put plainly: inhibition of [3H]-diminazene uptake in transfected bloodstream-form trypanosomes. The format is cell-based. The conditions noted are these: read-out: % inhibition at 1 mM.

T2 sequence (Q9Y0I0 entry or part of it): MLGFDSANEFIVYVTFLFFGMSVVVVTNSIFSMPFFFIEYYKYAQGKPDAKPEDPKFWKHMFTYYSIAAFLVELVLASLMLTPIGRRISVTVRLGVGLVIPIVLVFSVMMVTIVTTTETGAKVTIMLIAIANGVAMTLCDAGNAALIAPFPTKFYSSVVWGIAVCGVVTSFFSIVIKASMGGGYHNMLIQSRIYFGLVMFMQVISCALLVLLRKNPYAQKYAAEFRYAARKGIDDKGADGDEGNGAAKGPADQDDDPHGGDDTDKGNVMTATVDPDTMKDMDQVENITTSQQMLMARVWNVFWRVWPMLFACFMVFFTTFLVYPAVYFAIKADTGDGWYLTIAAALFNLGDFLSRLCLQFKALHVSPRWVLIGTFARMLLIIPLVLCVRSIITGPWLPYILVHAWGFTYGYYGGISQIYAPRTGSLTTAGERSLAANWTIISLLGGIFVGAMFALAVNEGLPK

As usually defined, the EC50 is the concentration at which the effect is half-maximal. As to `CC1(C)OB(O)c2cc(NC(=O)c3ccc(-n4cccn4)cc3Cl)ccc21` [AN7973], the EC50 in the assay with T. congolense IL3000 (first series) was determined as 0.12 µM.

The term inhibition denotes the change of the read-out against control, counted positive when it falls. Regarding `Nc1ncnc2c1ncn2[C@@H]1O[C@H](CO)[C@@H](O)[C@H]1O` [Ado, adenosine], the inhibition at 1000 µM on TbAT1 was determined as 100%.

For the compound `N=C(N)c1ccc(N=NNc2ccc(C(=N)N)cc2)cc1` [DA, diminazene aceturate], the concentration for a half-maximal effect (EC50) with T. congolense IL3000 (first series) is 0.27 µM; in the assay with T. congolense IL3000 (second series), 0.33 µM.

For `CC[n+]1c(-c2ccccc2)c2cc(N/N=N/c3cccc(C(=N)N)c3)ccc2c2ccc(N)cc21` [Isometamidium], in the assay on T. congolense IL3000 (first series), the concentration for a half-maximal effect (EC50) worked out at 0.0098 µM.

In the case of `N=C(N)c1ccc(OCCCCCOc2ccc(C(=N)N)cc2)cc1` [Pentamidine], in the assay on T. congolense IL3000 (first series), the EC50 was determined as 1.01 µM.

Turning to `CC1(C)OB(O)c2cc(NC(=O)c3ccc(F)cc3C(F)(F)F)ccc21` [SCYX-7158], the EC50 in the assay on T. congolense IL3000 (first series) came out at 0.52 µM.
